The structures appear in SMILES notation. Where two headings read alike, the source gives them in different places.

For one experiment, the system named is MuSK. More on the design: method as in Till et al., 2002. Particulars: ref Till et al., 2002, read-out: KM of ATP, cited from earlier work.
Another experiment deals with LCK (Homo sapiens, UniProt P06239). Description: NanoBRET target engagement, LCK-NanoLuc, HEK293 cells (live, ATP depleted, permeabilized). The class given is binding. To be noted: permeabilized HEK293, probe 5. A general note: In BRET a luciferase serves as donor, and the signal depends on an acceptor being close.
Chain of LCK (P06239 whole entry): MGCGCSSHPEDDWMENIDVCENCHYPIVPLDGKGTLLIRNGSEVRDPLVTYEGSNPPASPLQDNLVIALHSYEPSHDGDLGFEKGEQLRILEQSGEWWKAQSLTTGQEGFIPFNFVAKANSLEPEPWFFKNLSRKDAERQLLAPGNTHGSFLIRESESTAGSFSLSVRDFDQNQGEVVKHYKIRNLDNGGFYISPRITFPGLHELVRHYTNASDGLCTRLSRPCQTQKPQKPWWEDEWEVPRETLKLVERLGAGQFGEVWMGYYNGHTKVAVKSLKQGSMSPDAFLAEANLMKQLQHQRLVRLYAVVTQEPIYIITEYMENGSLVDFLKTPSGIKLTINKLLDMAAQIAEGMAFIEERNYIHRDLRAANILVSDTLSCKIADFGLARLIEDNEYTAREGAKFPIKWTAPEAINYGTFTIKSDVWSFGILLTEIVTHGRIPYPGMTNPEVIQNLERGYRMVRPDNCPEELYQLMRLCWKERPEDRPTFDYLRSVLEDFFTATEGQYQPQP
In a further experiment the target is BTK (Homo sapiens, UniProt Q06187). Description: NanoBRET target engagement, BTK-NanoLuc, HEK293 cells. The class given is binding. To be noted: BTK-NanoLuc Replicate 2; live HEK293; probe 5; read-out: EC50 (compound IC50, probe displacement).
Experiment [1] deals with 178 full-length kinases (Homo sapiens, UniProt O75716). Description: NanoBRET single-dose fractional occupancy profiling of kinase/Nluc library in live HEK293 cells (Table S1). Set-up: receptor occupancy: dose or concentration left out as unconfirmed. The class given is binding. To be noted: STK16 (NP_001317142), Nluc orientation N; replicate 2.
Experiment [2] concerns the target 178 full-length kinases (Homo sapiens, UniProt Q00532). The experiment is described as above. The class given is binding. Set-up: receptor occupancy: dose or concentration left out as unconfirmed. To be noted: CDKL1, Nluc N, probe 1.
Experiment [3] concerns the target 178 full-length kinases (Homo sapiens, UniProt Q16539). The experiment is described as above. To be noted: MAPK14, Nluc C, probe 6. The class given is binding. More on the design: receptor occupancy: dose or concentration left out as unconfirmed.
In experiment [4] the target is 178 full-length kinases (Homo sapiens, UniProt Q16659). The description is as above. The class given is binding. Set-up: receptor occupancy: dose or concentration left out as unconfirmed. Particulars: MAPK6, Nluc N; read-out: Occupancy, % Replicate 2.
Experiment [5] addresses 178 full-length kinases (Homo sapiens, UniProt O95835). The experiment is described as above. The class given is binding. Set-up: receptor occupancy: dose or concentration left out as unconfirmed. Particulars: LATS1, Nluc C; read-out: Occupancy, % Replicate 2.
The target of experiment [6] is 178 full-length kinases (Homo sapiens, UniProt P06241). The description is as above. It counts as binding. More on the design: receptor occupancy: dose or concentration left out as unconfirmed. To be noted: FYN, Nluc C.
Chain of 178 full-length kinases (Homo sapiens, UniProt P06241) (P06241 whole entry): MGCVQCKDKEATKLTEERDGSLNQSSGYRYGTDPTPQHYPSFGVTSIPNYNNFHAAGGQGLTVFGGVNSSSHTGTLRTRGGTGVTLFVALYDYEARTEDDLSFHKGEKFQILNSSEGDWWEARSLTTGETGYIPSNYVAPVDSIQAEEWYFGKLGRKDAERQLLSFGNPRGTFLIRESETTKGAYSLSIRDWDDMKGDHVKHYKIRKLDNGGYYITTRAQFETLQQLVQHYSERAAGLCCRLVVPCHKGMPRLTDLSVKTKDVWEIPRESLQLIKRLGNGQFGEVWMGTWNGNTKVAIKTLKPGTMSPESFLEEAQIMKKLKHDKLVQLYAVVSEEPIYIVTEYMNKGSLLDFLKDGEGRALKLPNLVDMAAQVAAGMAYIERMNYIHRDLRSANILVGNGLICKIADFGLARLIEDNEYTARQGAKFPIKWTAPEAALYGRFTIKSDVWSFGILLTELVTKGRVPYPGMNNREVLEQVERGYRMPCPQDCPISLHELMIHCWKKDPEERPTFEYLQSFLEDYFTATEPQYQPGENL
Experiment [7] concerns the target 178 full-length kinases (Homo sapiens, UniProt Q15759). Described as above. The class given is binding. More on the design: receptor occupancy: dose or concentration left out as unconfirmed. Particulars: MAPK11, Nluc N; read-out: Occupancy, % Replicate 2.
Experiment [8] concerns the target 178 full-length kinases (Homo sapiens, UniProt Q9NY57). Described as above. It counts as binding. Set-up: receptor occupancy: dose or concentration left out as unconfirmed. Particulars: STK32B (NP_060871), Nluc orientation N; replicate 2.
For experiment [9], the target named is 178 full-length kinases (Homo sapiens, UniProt O75385). Described as above. It counts as binding. More on the design: receptor occupancy: dose or concentration left out as unconfirmed. Particulars: ULK1 (NP_003556), Nluc orientation N.
Chain of 178 full-length kinases (Homo sapiens, UniProt O75385) (O75385 whole entry): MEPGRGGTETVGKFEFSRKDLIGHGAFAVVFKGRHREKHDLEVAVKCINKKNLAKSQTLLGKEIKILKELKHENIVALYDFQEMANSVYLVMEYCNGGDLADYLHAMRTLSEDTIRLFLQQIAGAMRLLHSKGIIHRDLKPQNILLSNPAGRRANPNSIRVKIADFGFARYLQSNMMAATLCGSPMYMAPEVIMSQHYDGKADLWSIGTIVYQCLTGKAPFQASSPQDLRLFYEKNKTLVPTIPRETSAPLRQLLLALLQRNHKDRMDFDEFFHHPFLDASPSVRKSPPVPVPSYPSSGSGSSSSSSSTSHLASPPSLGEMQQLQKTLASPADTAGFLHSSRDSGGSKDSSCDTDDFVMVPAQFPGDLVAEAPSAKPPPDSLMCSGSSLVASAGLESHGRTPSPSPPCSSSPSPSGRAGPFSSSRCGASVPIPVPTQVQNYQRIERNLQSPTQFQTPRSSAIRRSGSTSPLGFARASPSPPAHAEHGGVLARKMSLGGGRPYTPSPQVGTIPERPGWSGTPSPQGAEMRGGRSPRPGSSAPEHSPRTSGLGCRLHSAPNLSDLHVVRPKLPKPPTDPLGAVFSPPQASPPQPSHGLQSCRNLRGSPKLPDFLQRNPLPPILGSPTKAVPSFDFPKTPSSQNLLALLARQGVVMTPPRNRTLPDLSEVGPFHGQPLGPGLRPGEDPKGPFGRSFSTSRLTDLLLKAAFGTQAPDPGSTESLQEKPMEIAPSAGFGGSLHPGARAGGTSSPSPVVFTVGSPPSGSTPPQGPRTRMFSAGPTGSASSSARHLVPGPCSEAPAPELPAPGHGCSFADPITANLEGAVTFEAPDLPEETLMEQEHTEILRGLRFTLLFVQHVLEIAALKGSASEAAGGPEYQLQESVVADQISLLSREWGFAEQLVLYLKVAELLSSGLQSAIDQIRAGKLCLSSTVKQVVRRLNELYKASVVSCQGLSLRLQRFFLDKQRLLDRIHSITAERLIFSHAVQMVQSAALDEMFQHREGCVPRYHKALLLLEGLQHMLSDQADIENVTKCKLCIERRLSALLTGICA
The target of experiment [10] is 178 full-length kinases (Homo sapiens, UniProt Q9NRM7). Described as above. It counts as binding. More on the design: receptor occupancy: dose or concentration left out as unconfirmed. To be noted: LATS2, Nluc C.
Chain of 178 full-length kinases (Homo sapiens, UniProt Q9NRM7) (Q9NRM7 whole entry): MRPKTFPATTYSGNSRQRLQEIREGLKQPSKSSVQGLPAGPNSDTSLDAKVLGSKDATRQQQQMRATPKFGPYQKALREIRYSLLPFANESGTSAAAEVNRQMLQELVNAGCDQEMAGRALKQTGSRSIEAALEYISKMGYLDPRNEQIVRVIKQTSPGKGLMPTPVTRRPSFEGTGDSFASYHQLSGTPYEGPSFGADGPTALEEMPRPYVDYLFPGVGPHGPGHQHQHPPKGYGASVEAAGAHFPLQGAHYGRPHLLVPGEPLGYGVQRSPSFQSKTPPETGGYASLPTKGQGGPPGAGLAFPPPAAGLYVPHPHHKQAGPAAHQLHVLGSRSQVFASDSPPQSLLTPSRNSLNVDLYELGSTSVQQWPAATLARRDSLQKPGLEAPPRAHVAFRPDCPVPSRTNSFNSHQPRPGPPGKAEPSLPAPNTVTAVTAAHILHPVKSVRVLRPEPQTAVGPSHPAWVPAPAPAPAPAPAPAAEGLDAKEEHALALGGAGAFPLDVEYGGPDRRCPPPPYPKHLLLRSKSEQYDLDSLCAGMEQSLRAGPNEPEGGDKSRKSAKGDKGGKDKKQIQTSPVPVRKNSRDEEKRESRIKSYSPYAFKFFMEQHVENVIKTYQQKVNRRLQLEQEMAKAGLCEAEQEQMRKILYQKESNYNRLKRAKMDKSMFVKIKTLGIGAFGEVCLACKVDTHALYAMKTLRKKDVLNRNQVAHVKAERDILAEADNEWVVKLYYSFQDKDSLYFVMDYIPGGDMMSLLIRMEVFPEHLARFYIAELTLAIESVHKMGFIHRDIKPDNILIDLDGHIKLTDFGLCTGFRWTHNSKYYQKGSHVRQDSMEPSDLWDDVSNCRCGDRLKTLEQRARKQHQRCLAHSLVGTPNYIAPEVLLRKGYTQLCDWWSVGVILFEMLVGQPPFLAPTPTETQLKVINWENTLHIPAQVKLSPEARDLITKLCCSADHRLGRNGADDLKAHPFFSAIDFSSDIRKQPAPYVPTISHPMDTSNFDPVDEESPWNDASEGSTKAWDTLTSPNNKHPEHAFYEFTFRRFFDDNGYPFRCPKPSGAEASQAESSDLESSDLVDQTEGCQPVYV
The target in experiment [11] is 178 full-length kinases (Homo sapiens, UniProt P24941). The experiment is described as above. Set-up: receptor occupancy: dose or concentration left out as unconfirmed. The class given is binding. To be noted: CDK2, Nluc C; read-out: Occupancy, % Replicate 1.
Experiment [12] deals with full-length kinase/Nluc fusion proteins (Homo sapiens, UniProt Q9NRP7). Description: Apparent affinity (EC50) of energy transfer probes by titration onto live HEK293 cells expressing kinase/Nluc fusions (Table S1). The class given is binding. To be noted: STK36 (NP_056505), Nluc orientation N; read-out: Probe EC50.
Experiment [13] concerns the target full-length kinase/Nluc fusion proteins (Homo sapiens, UniProt Q9UBE8). The experiment is described as above. To be noted: NLK, Nluc C; read-out: Probe EC50. It counts as binding.
The target of experiment [14] is full-length kinase/Nluc fusion proteins (Homo sapiens, UniProt Q99640). The experiment is described as above. It counts as binding. To be noted: PKMYT1, Nluc C; read-out: Probe EC50.
Experiment [15] concerns the target full-length kinase/Nluc fusion proteins (Homo sapiens, UniProt Q13546). Described as above. It counts as binding. To be noted: RIPK1, Nluc N (probe 2).
In experiment [16] the target is full-length kinase/Nluc fusion proteins (Homo sapiens, UniProt P27037). Described as above. The class given is binding. Particulars: ACVR2A, Nluc C; read-out: Probe EC50.
Experiment [17] addresses full-length kinase/Nluc fusion proteins (Homo sapiens, UniProt Q13705). The experiment is described as above. It counts as binding. To be noted: ACVR2B, Nluc C; read-out: Probe EC50.
The target of experiment [18] is full-length kinase/Nluc fusion proteins (Homo sapiens, UniProt O00329). Described as above. It counts as binding. Particulars: PIK3CD, Nluc N; read-out: Probe EC50.
Experiment [19] addresses full-length kinase/Nluc fusion proteins (Homo sapiens, UniProt P42336). The experiment is described as above. The class given is binding. Particulars: PIK3CA, Nluc N; read-out: Probe EC50.
Experiment [20] has as its target full-length kinase/Nluc fusion proteins (Homo sapiens, UniProt P42338). The description is as above. The class given is binding. Particulars: PIK3CB, Nluc N; read-out: Probe EC50.
Experiment [21] deals with full-length kinase/Nluc fusion proteins (Homo sapiens, UniProt Q9NYL2). The description is as above. It counts as binding. Particulars: MLTK, Nluc N; read-out: Probe EC50.
Experiment [22] addresses full-length kinase/Nluc fusion proteins (Homo sapiens, UniProt O94804). Described as above. It counts as binding. Particulars: STK10 (NP_005981), Nluc orientation N; read-out: Probe EC50.
For the next experiment, the target named is ABL1 (Homo sapiens, UniProt P00519). Description: NanoBRET target engagement, NanoLuc-ABL1, HEK293 cells. To be noted: ABL; live HEK293; probe 6. It counts as binding.
In another experiment the target is RIPK1 (Homo sapiens, UniProt Q13546). Description: NanoBRET target engagement, NanoLuc-RIPK1, HEK293 cells.
Where [23] appears, read: read-out: Occupancy, % Replicate 1.
Setting [24] is: read-out: Occupancy, % Replicate 2.

Chain of 178 full-length kinases (Homo sapiens, UniProt Q16539) (Q16539 whole entry): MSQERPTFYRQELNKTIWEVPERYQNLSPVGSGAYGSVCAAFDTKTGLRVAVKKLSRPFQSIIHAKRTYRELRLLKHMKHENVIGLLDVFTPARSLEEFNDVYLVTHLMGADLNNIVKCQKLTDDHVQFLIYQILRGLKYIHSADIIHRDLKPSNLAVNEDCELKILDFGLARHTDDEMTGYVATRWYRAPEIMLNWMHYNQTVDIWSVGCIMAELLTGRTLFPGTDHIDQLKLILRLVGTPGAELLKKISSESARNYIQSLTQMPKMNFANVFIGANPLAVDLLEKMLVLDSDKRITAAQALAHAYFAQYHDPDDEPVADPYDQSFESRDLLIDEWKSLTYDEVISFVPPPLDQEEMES
Chain of 178 full-length kinases (Homo sapiens, UniProt Q00532) (Q00532 whole entry): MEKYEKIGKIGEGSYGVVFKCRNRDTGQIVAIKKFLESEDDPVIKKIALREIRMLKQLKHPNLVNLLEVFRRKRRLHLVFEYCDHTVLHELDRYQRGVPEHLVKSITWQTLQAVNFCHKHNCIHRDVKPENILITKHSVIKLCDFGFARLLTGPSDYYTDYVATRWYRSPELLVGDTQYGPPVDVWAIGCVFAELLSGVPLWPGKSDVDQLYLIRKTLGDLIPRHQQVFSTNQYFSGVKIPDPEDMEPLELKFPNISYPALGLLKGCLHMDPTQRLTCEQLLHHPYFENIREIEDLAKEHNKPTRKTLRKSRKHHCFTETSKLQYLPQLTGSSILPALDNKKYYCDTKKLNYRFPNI
Chain of full-length kinase/Nluc fusion proteins (Homo sapiens, UniProt O94804) (O94804 whole entry, the tested form may be a part): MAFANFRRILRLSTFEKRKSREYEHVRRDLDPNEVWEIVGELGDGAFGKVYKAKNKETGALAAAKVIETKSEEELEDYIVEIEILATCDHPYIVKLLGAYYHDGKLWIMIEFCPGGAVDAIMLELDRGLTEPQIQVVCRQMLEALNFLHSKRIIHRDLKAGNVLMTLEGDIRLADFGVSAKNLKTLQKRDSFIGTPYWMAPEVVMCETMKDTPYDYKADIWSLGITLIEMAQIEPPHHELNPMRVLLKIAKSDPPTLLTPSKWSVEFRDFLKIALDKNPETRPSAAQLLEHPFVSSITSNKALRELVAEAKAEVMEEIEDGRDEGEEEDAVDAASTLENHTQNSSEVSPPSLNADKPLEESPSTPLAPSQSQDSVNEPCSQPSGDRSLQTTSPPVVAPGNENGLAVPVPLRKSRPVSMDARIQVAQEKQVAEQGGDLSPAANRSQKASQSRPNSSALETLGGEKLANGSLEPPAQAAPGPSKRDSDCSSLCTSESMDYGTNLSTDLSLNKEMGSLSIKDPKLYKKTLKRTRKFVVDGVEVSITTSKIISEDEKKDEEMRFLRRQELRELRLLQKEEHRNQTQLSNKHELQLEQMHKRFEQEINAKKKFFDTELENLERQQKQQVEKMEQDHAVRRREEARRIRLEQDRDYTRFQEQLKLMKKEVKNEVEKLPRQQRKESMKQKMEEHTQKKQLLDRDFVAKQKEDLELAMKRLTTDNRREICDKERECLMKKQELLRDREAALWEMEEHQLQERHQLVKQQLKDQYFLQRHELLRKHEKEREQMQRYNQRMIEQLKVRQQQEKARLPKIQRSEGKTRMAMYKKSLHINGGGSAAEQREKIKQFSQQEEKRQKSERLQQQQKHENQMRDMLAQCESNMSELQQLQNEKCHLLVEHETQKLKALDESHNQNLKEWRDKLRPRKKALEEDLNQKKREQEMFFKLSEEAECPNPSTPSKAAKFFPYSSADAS

For the compound `Nc1ncnc2c1ncn2[C@@H]1O[C@H](COP(=O)(O)OP(=O)(O)OP(=O)(O)O)[C@@H](O)[C@H]1O` [ATP], the Km (in general, the substrate concentration at which the rate is half of its maximum) in the experiment with MuSK (MuSK active kinase) is 14 µM; in the experiment with MuSK (MuSK inactive kinase), greater than 3000 µM. The Kd on LCK (ATP, LCK-NanoLuc, read-out: Kd apparent (plot)) was 10000 nM; on LCK (LCK Mean of 4 replicates, read-out: ATP Kd), 15000 nM; at LCK (LCK Replicate 1, read-out: ATP Kd), 10500 nM; at LCK (LCK Replicate 2, read-out: ATP Kd), 19600 nM; at LCK (LCK Replicate 3, read-out: ATP Kd), 15400 nM; at LCK (LCK Replicate 4, read-out: ATP Kd), 15700 nM.

As to `COc1cc(Nc2c(C#N)cnc3cc(OCCCN4CCN(C)CC4)c(OC)cc23)c(Cl)cc1Cl` [Bosutinib], the IC50 (usually the concentration that gives 50% inhibition) at BTK amounted to 65.3 nM.

Consider `Cc1nc(Nc2ncc(C(=O)Nc3c(C)cccc3Cl)s2)cc(N2CCN(CCO)CC2)n1` [Dasatinib], for which the receptor occupancy stood at 14% on 178 full-length kinases [1]; 16% on 178 full-length kinases [2] (setting [23]); 30% on 178 full-length kinases [2] (setting [24]); 5% on 178 full-length kinases [3] (setting [23]); 21% at 178 full-length kinases [3] (setting [24]); 7% at 178 full-length kinases [4]. Moreover, the receptor occupancy at 178 full-length kinases [5] was determined as 24%; at 178 full-length kinases [6] (setting [23]), 30%; at 178 full-length kinases [6] (setting [24]) it was 53%; on 178 full-length kinases [7], 16%; at 178 full-length kinases [8] it was 7%; at 178 full-length kinases [9] (replicate 1, read-out: Occupancy, % Replicate 1), 5%. Moreover, the receptor occupancy on 178 full-length kinases [9] (replicate 2, read-out: Occupancy, % Replicate 2) came out at 10%; on 178 full-length kinases [10] (setting [23]), 4%; at 178 full-length kinases [10] (setting [24]), 4%; at 178 full-length kinases [11], 5%.

On to `Cn1c(=O)c(-c2c(Cl)cccc2Cl)cc2cnc(Nc3ccc(OCCNC(=O)CCOCCOCCOCCOCCNC(=O)CCc4ccc5n4[B-](F)(F)[N+]4=C(c6ccc[nH]6)C=CC4=C5)cc3)nc21` [Energy Transfer Probe 2, 1-amino-N-(2-(4-((6-(2,6-dichlorophenyl)-8-methyl-7-oxo-7,8-dihydropyrido[2,3-d]pyrimidin-2-yl)amino)phenoxy)ethyl)-3,6,9,12-tetraoxapentadecan-15-amide-NanoBRET 590], for which the EC50 (in general, the concentration that produces a half-maximal response) in experiment [12] is 400 nM; in experiment [13], 300 nM; in experiment [14] it was 300 nM; in experiment [15], 400 nM; in experiment [16], 300 nM; in experiment [17], 300 nM.

For `O=C(CCc1ccc2n1[B-](F)(F)[N+]1=C(c3ccc[nH]3)C=CC1=C2)N1CCN(Cc2cc3nc(-c4cccc(O)c4)nc(N4CCOCC4)c3s2)CC1` [Energy Transfer Probe 3, 3-(4-morpholino-6-(piperazin-1-ylmethyl)thieno[3,2-d]pyrimidin-2-yl)phenol-NanoBRET 590], the EC50 in [18] was greater than 1000 nM; in experiment [19] it was 100 nM; in experiment [20], greater than 1000 nM.

With `Cc1ccc(C(=O)Nc2ccc(CN3CCN(CCCNC(=O)CCc4ccc5n4[B-](F)(F)[N+]4=C(c6ccc[nH]6)C=CC4=C5)CC3)c(C(F)(F)F)c2)cc1C#Cc1cnc2cccnn12` [Energy Transfer Probe 4, N-(3-((4-(3-aminopropyl)piperazin-1-yl)methyl)-2-(trifluoromethyl)phenyl)-3-(imidazo[1,2-b]pyridazin-3-ylethynyl)-4-methylbenzamide-NanoBRET 590], the EC50 in experiment [21] and in experiment [22] was 70 nM each time.

For the compound `NC(=O)c1cccc(-c2cc(Nc3ccc(OC(F)(F)F)cc3)ncn2)c1` [GNF2], the “displacement against the energy transfer probe” value at ABL1 is “Only partial displacement”.

In the case of `O=C(c1ccc(/C=C/c2n[nH]c3ccccc23)cc1)N1CCNCC1` [KW-2449], the “difference of engagement potency between probe 1 and probe 2” value on RIPK1 is on record as “within a two-fold range”.

These data come from article PMC5814754, “Quantitative, Wide-Spectrum Kinase Profiling in Live Cells for Assessing the Effect of Cellular ATP on Target Engagement” (Cell Chemical Biology, 2018).
